Measurements reported in patent US7071147B2, “Weed control process” (priority 2001, dated 2006).

Legend:
[1] = tested on: Redroot pigweed (AMARE), normal wild variety (non-tolerant); assay: Glasshouse postemergence herbicide test, percentage damage on normal wild (non-tolerant) plants; type: in vivo; conditions: rates of Table 1; 13 days after application
From the text: (§1) The soil was a silty clay loam mixed with fertiliser (12-12-12) at the rate of 128 g fertiliser to 10 gallons of soil.
(§2) The tolerant seeds were planted 13 days earlier than the non-tolerant seeds in order to get the seedlings to a similar size by the time the herbicide was applied. The time difference in planting was based on earlier observations of germination speed. On application of the herbicides, the tolerant plants had reached the 6-9 leaf stage, and the non-tolerant plants the 5-leaf stage.
(§3) Herbicide solutions were made by dissolving the herbicide(s) in tap water containing 0.5% of a commercial surfactant, ‘Tween 20’. The solutions were applied at […] and 40 p.s.i pressure, using an 80015E nozzle. After spraying, the plants were placed in a glasshouse at 29/20° C. day/night temperature and 45/65% day/night relative humidity and a photoperiod of 14 hours.
(§4) The figures in the mesotrione and atrazine columns are g/ha of herbicide applied to the test pots. The figures in the subsequent columns are percentage damage observed 13 days after application of the relevant herbicide composition. The numbers range from 0 (no effect) to 100 (dead plants). The main area of focus for the present invention is the effect on tolerant plants, and the effect on non-tolerant plants was only measured for comparative purposes.

[2] = tested on: Redroot pigweed (AMARE), variant known to exhibit triazine tolerance; type: in vivo; conditions: 13 days after application; for effect on tolerant plants (in words): rates of Table 1
From the text: as §1, §2, §3, §4

Compound	effect on non-tolerant plants (in words) [1]	effect on tolerant plants (in words) [2]	damage level on tolerant plants ([2]; 0.90 g/ha mesotrione alone)
CCNc1nc(Cl)nc(NC(C)C)n1 [Atrazine, atrazine]	significantly damaging	no effect at all	
CS(=O)(=O)c1ccc(C(=O)C2C(=O)CCCC2=O)c([N+](=O)[O-])c1 [mesotrione]	causes damage	causes damage	2
